The source of these data is ChEMBL document CHEMBL3259752, “Cell permeable vanX inhibitors as vancomycin re-sensitizing agents” (Bioorg Med Chem Lett, 2014).

The structures appear in SMILES notation. The source made the active and inactive calls. The rule behind the calls is not given here.

Data set [1] concerns the target T1, D-alanyl-D-alanine dipeptidase (Enterococcus faecium, UniProt Q06241).
T1 sequence (Q06241 whole entry): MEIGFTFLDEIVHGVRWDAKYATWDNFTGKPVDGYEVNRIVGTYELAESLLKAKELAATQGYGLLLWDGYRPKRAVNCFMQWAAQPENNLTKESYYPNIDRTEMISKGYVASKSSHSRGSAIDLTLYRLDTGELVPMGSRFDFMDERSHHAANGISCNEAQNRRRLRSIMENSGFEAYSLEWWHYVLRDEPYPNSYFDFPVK
The experiment in a line: Inhibition of Enterococcus faecium VanX expressed in Escherichia coli BL21 (DE3) cells using D-alanyl-alpha-R-phenylthioglycine as substrate by colorimetric assay.

Data set [2] can be described thus: Cytotoxicity against HEK293 cells after 72 hrs by MTT assay. It counts as cell-based. The following applies: human.
Data set [3] deals with Enterococcus faecium. In words: Antibacterial activity against vancomycin-resistant Enterococcus faecium E12-2 assessed as growth inhibition by checkerboard analysis. It is filed as functional, organism-based.
Data set [4] concerns Enterococcus faecium. The experiment in a line: Increase in vancomycin sensitivity in vancomycin-resistant Enterococcus faecium E12-2 assessed as reduction in vancomycin MIC at 72 ug/ml by checkerboard analysis. It counts as functional, organism-based.
For data set [5], the system named is Enterococcus faecium. In words: Increase in vancomycin sensitivity in vancomycin-resistant Enterococcus faecium E12-2 assessed as reduction in vancomycin MIC at 212 ug/ml by checkerboard analysis. It counts as functional, organism-based.

As for `C[C@@H](N)P(=O)(O)C[C@H](C(=O)O)c1ccccc1`, affinity in data set [1] was put at a Ki of 2.9 µM.

Consider `CC1(C)S[C@@H]2[C@H](NC(=O)[C@H](N)c3ccc(O)cc3)C(=O)N2[C@H]1C(=O)O` [AMOXICILLIN], for which, in data set [2], the 50% cytotoxic concentration (CC50) at 72 h is 24 µM. The same measure, in the same setting: under `CN[C@H](CC(C)C)C(=O)N[C@H]1C(=O)N[C@@H](CC(N)=O)C(=O)N[C@H]2C(=O)N[C@H]3C(=O)N[C@H](C(=O)N[C@H](C(=O)O)c4cc(O)cc(O)c4-c4cc3ccc4O)[C@H](O)c3ccc(c(Cl)c3)Oc3cc2cc(c3O[C@@H]2O[C@H](CO)[C@@H](O)[C@H](O)[C@H]2O[C@H]2C[C@](C)(N)[C@H](O)[C@H](C)O2)Oc2ccc(cc2Cl)[C@H]1O` [VANCOMYCIN] stands above 100 µM. In turn, `O=C(N[C@@H](C(=O)O)c1ccccc1)c1cccc(=S)n1O` returned a Ki in data set [1] of 2.74 µM. Moreover, the inhibition entry with Enterococcus faecium [3] is “inactive”. The result with Enterococcus faecium [4] was Active. The molecule also came in with a CC50 at 72 h in data set [2] of 64 µM.

`C[C@H](CP(=O)(O)[C@@H](C)N)C(=O)O` returned a Ki in data set [1] of 1.5 µM. `C[C@@H](NC(=O)c1cccc(=S)n1O)C(=O)O` had a Ki in data set [1] of 6.84 µM. For the same molecule, in the data set on Enterococcus faecium [3], the inhibition result was “inactive”. In the data set on Enterococcus faecium [5], the result was Active. The molecule also had a CC50 at 72 h in data set [2] of 76 µM. On to `CC(C)[C@H](CP(=O)(O)[C@@H](C)N)C(=O)O`, for which, in data set [1], the Ki turned out to be 6.1 µM.
